The text below walks through data of US20070099826A1, “Treatment of diseases associated with the egr-1 enhancer element” (priority 2003, published 2007).

The test system of assay [1] is APO A1 protein. The assay can be described thus: Immunofluorescence staining of APO A1 protein in Hep G2 cells. The class given is cell-based, human. To be noted: 5 or 10 μM. As to the method:
(§1) Human hepatoblastoma cells (HepG2) and intestinal cells (CaCo2) were obtained from the American Type Culture Collection (Rockville, Md.). Cells were grown in Minimum Essential Medium (MEM) (Gibco) supplemented with 2 mM glutamine, MEM vitamin solution and 10% fetal bovine serum (FBS) for HepG2 and 20% FBS (Gibco) for CaCo2 cells. All cells were incubated in a 95% air/5% CO2 atmosphere.
The CaCo2 or HepG2 cells were grown in the defined media and, for promoter assay studies, transfected with the reporter construct of interest. Cells were then left in serum-free media for 8-12 hours after which time resveratrol was added to media to give a final concentration of the agent as stated in the figure legends. […]
HepG2 and CaCo2 cells were grown on cover slips. […] The FITC-labeled ApoA1 peptide in cells was visualized using a Zeiss fluorescence microscope (Zeiss, Dusseldorf, Germany) with FITC excitation and emission wavelengths of 488 and 520 nm. […]
Since the APO A1 gene is expressed in both liver and small intestine, the following studies examine the ability of resveratrol to affect expression of the gene in liver cells. […] Hep G2 cells were viewed under phase contrast or fluorescence microscopy following treatment with or without resveratrol and immunostaining for their content of APO A1 protein.

The test system of assay [2] is human APO A1 promoter from −474 to −7. The assay can be described thus: APO A1 promoter activity, pA1.474-Luc reporter transiently transfected in CaCo2 cells. The class given is cell-based. As for the experimental part: (§2) The plasmids created for the studies contained the human APO A1 promoter from −474, −375, −325, −235, −190 to −170 fused to the firefly luciferase gene in the vector, pGL3 (Promega). Insertion of the promoter DNA was verified by nucleotide sequence analysis. Plasmid DNA was prepared from bacteria containing the desired clone and isolated using Qiagen kits according to manufacturer's instructions and used in the tansfection studies or to create a stable cell line.
(§3) The CaCo2 or HepG2 cells were grown in the defined media and, for promoter assay studies, transfected with the reporter construct of interest. Cells were then left in serum-free media for 8-12 hours after which time resveratrol was added to media to give a final concentration of the agent as stated in the figure legends. The cells were exposed to the agent for varying periods of time, harvested and then the parameter of interest, either APO A1 protein or promoter activity, was assayed.
(§4) For transient transfections cells were seeded onto six well plates and grown to 30-40% confluence, The cells were then transfected using 5 μl of Superfect (Qiagen) and up to one microgram of the plasmid of interest in 100 μl of serum and antibiotic free MEM. The solution was incubated for 10 minutes at room temperature. Media was then removed from the cells to be transfected and 1 ml of media was added to the DNA-Superfect mixture before being applied to the cells. The cells were then exposed to the DNA for 2 hours at 37° C./5% CO2 and then the media containing DNA was removed and replaced with serum free MEM media allowed to grow over night prior to harvest.
Cells were transfected with Luciferase plasmid of interest (see above) and left to recover overnight in serum poor media. […] Luciferase activity was then determined and expressed relative to the protein concentration of that sample.
Next the CaCo2 cells were exposed to varying concentrations of resveratrol from 0 to 15 μM. […] At the end of the treatment, the cells were harvested and the Luc-activity measured. […]

In assay [3] the test system is APO A1 protein. The assay can be described thus: Immunofluorescence staining of APO A1 protein in CaCo2 cells. The class given is cell-based, human. To be noted: 5 and 10 μM, 36 hours of treatment. As to the method: as §1, §3
HepG2 and CaCo2 cells were grown on cover slips. Cover slips on which CaCo2 cells were grown were also coated with fibronectin (Calbiochem). […] The FITC-labeled ApoA1 peptide in cells was visualized using a Zeiss fluorescence microscope (Zeiss, Dusseldorf, Germany) with FITC excitation and emission wavelengths of 488 and 520 nm. […]

In assay [4] the test system is APO A1 promoter. The assay can be described thus: APO A1 promoter activity, pA1.474-Luc reporter transiently transfected in Hep G2 cells. In kind it is cell-based, human. As to the method: as §2, §3, §4
Cells were transfected with Luciferase plasmid of interest (see above) and left to recover overnight in serum poor media. These cells or those that were permanently transfected with the luciferase promoter were then treated with varying concentrations of resveratrol for stated periods of time. As above, RSV-beta-Gal was co-transfected as a control to normalize for DNA uptake. […] Luciferase activity was then determined and expressed relative to the protein concentration of that sample. […]

The test system of assay [5] is APO A1 promoter. The assay can be described thus: APO A1 promoter activity, Hep G2 cells permanently transfected with pA1.474-Luc. The class given is cell-based, human. To be noted: 10 μM resveratrol. As to the method:
HepG2 cells were also permanently transfected with 474-luciferase using a co-transfection method. Hep G2 cells are grown in MEM (Gibco) and 10% fetal calf serum (Gibco) and then co-transfected with 474-Luc along with another plasmid that carries neomycin resistance.
(§5) Cells were transfected with Luciferase plasmid of interest (see above) and left to recover overnight in serum poor media. These cells or those that were permanently transfected with the luciferase promoter were then treated with varying concentrations of resveratrol for stated periods of time. As above, RSV-beta-Gal was co-transfected as a control to normalize for DNA uptake. Cells were then harvested and suspended in reporter lysis buffer (Promega). A 10 μl aliquot of this lysate was used for determination of luciferase activity, and 5 μl were used for total protein determination (Bradford Assay, Bio-Rad reagent). Luciferase activity was then determined and expressed relative to the protein concentration of that sample.
To assay for promoter activity in Hep G2 cells, the reporter construct pA1.474-Luc was inserted into the human hepatoma, Hep G2, cells along with pRSV-β-galactosidase as a monitor for transfection efficiency using conventional molecular biology techniques as later described. The transfected cells were exposed to varying concentrations of resveratrol from 0 to 100 μM for 16 hours. […]

The subject of assay [6] is APO A1 promoter. Kind of assay: APO A1 promoter deletion constructs fused to Luc, transient transfection in CaCo2 cells. To be noted: 5 μM, minimum of 16 hours. In kind it is cell-based, human. As for the experimental part: as §2, §4, §5
In order to identify the potential motif(s), separate constructs containing progressively smaller amounts of APO A1 DNA were fused to the Luc gene. The activity of each construct was tested by transient transfection assay in CaCo2 cells and than treated with 5 μM resveratrol for a minimum of 16 hours. […] The number at the bottom of each set of columns denotes the 5′ location of the fragment and the 3′ end is common to all deletional clones at −7. […] In contrast, further deletion with the remaining −170 to −7 fragment of the promoted abolished the resveratrol induction of the promoter. We discovered the resveratrol responsive motif in the APO A1 DNA must span nucleotides −190 to −170.

In assay [7] the test system is APO A1 protein. Kind of assay: Western blot of APO A1 protein in spent media from Hep G2 cells. In kind it is cell-based, human. The following applies: 5 or 10 p,M, 36 hours. As to the method: (§6) Media or cells were harvested from untreated and treated HepG2/CaCo2 culture dishes at various time points and stored at −80° C. when required. For experiments in which media was collected for western blotting, cells from these dishes were trypsinized (Gibco) and a 100 μl sample of cells was used to determine the percentage of dead cells by counting live/dead cell ratios using […] staining. The remaining cells were then assessed for total DNA content using method described by Maniatis, (Cloning Manual). DNA content per dish was then utilized along with ratio of live/dead cells to normalize the amount of media to be separated by polyacrylamide gel electrophoresis. For experiments requiring western blot of whole cell lysates, cells were harvested and lysed using reporter lysis reagent (Promega) and cell debris was spun down at 13,000 rpm for 5 minutes. An aliquot of the supernatant was then used to determine amount of protein per samples were using Bradford assay (Rio-Rad reagent). Equal amounts of protein from all samples were then separated by polyacrylamide gel electrophoresis as was done with media. […]
To measure whether resveratrol stimulation of the APO A1 promoter in the Hep G2 cells also increases the abundance of the protein, APO A1 secreted into the media was assessed following treatment with the compound. […]

Assay [8] has as its system APO A1 protein. Kind of assay: Western blot of APO A1 protein in spent media from CaCo2 cells. The following applies: 5 or 10 p,M, 36 hours. The class given is cell-based, human. As for the experimental part: as §6, with “minutes.” for “minutes. An aliquot of the supernatant was then used to determine amount of protein per samples were using Bradford assay (Rio-Rad reagent). Equal amounts of protein from all samples were then separated by polyacrylamide gel electrophoresis as was done with media.”
This to experiment sought to measure whether resveratrol stimulation of transcriptional activity of the promoter in the CaCo2 cells increased the abundance of the APO A1 protein, ultimately responsible for the antiatherogenic activity of the gene. […] Longer exposure of the cells to resveratrol was utilized to allow adequate time for the APO A1 protein to be secreted into the media from the CaCo2 cells, and detected. […]

SMILES strings stand for the structures.

As to `Oc1ccc(/C=C/c2cc(O)cc(O)c2)cc1` [resveratrol, trans-3,5,4′-trihydroxystilbene], the “fluorescence for APO A1 signal (immunostaining)” value in the assay on APO A1 protein [1] is recorded as “increase in fluorescence”. The “optimal time point for stimulatory effect on APO A1 promoter” value in assay [2] (5 μM, time points 4 to 24 hours) was “around 16 hours”. Moreover, the “maximal stimulation of APO A1 promoter activity (Luc-activity)” value in assay [2] (16 hours, resveratrol 5 to 7.5 μM) was found to be 2.5 fold. Besides, in assay [2] (16 hours, tested 0 to 15 μM), the “resveratrol concentration causing maximal stimulation of APO A1 promoter activity” value lay in the range of 5 to 7.5 µM. In the assay on APO A1 protein [3], the “abundance of APO A1 signal (immunohistochemical staining)” value is “increase in the abundance of APO A1 signal”. Besides, the “concentration at which resveratrol becomes inhibitory on APO A1 promoter activity” value with APO A1 promoter [4] (16 hours) is at least 50 µM. The “increase in Luc-activity (APO A1 promoter)” value with APO A1 promoter [4] (16 hours, 5 to 10 μM resveratrol) is 3 fold. The “decrease in Luc-activity” value in the assay on APO A1 promoter [4] (16 hours, 15, 25, 50, 75 or 100 μM) turned out to be 50%. Also, the “maximal increase of Luc-activity” value in the assay with APO A1 promoter [5] was found to be 4 fold. For the same molecule, in the assay on APO A1 promoter [6], the “increase in promoter activity, −190 to −7 fragment” value was determined as 2.5 fold; the “increase in promoter activity, −235 to −7 fragment” value is 2.5 fold; the “induction of promoter activity, full-length (−474 to −7) promoter” value is reported as 2.5 fold; the “induction of promoter, −170 to −7 fragment” value is on record as “abolished”. For the same molecule, the “abundance of APO A1 protein in spent media (western blot)” value in the assay on APO A1 protein [7] is on record as “marked increase”. Further, in the assay on APO A1 protein [8], the “abundance of APO A1 protein in spent media (western blot)” value is “marked increase”.
